Tests used:
[1] = Plasma pharmacokinetics, LC-MS/MS, non-compartmental analysis; format: in vivo, human; details: for AUC(0-inf) / clearance / Cmax / half-life / Tmax / Vd: human, plasma, intravenous; for AUC(0-inf): Mean AUC0-∞ ± SD; for clearance: Mean CL ± SD; for Cmax: Mean Cmax ± SD; for half-life: Mean T1/2 ± SD; for Vd: Mean Vz ± SD
relapsed myeloma = test: Clinical response by International Myeloma Working Group criteria; format: in vivo, human; details: 15 patients, all dose levels
[2] = in vivo
[3] = in human serum; cited from earlier work
[4] = dose level 30 + 30 mg/m^2, cycle 1 days 1 and 22 combined
[5] = dose level 30+50 mg/m^2, cycle 1 days 1 and 22 combined
[6] = dose level 50+50 mg/m^2, cycle 1 days 1 and 22 combined

Work on `CN1CC[C@H](c2c(O)cc(O)c3c(=O)cc(-c4ccccc4Cl)oc23)[C@H](O)C1` [Flavopiridol] yielded an AUC(0-inf) [1, 4] of 7.78 ± 2.75 µM·h, an AUC(0-inf) [1, 5] of 4.75 ± 1.06 µM·h and an AUC(0-inf) [1, 6] of 14.2 ± 5.34 µM·h. For the same compound, the clearance [1, 4] was 666 mL/min, the clearance [1, 5] was 1280 mL/min and the clearance [1, 6] was 643 mL/min. The Cmax [1, 4] was 1850 ± 800 nM, the Cmax [1, 5] was 1090 ± 430 nM and the Cmax [1, 6] was 2410 ± 740 nM. It also gave a half-life [1, 4] of 6.87 ± 3.24 h, a half-life [1, 5] of 3.65 ± 1.75 h and a half-life [1, 6] of 5.35 ± 2.83 h. For the same compound, the Tmax ([1]; Mean Tmax ± SD, dose level 30 + 30 mg/m^2, cycle 1 days 1 and 22 combined) was 0.52 ± 0.03 h, the Tmax ([1]; Mean Tmax ± SD, dose level 30+50 mg/m^2, cycle 1 days 1 and 22 combined) was 1.18 ± 1.22 h and the Tmax ([1]; Mean Tmax ± SD, dose level 50+50 mg/m^2, cycle 1 days 1 and 22 combined) was 1.4 ± 1.67 h. The Vd [1, 4] was 368 ± 210 L, the Vd [1, 5] was 417 ± 242 L and the Vd [1, 6] was 317 ± 255 L. The Tmax ([1]; Tmax, outlier, 30/50 mg/m^2 dose level group, single profile) was 3 h, the “Average difference in AUC(0-∞), day 22 versus day 1” value ([1]; patients with PK data on both days (n=6), 95% CI −2.78 to 4.78, P=0.53) was 1.00 µM·h and the Confirmed partial responses (relapsed myeloma) was “no confirmed partial responses”. For the same compound, the “Patients with progressive disease after the first cycle” value (relapsed myeloma) was 4 patients, the “Dehydration, patients with toxicity” value ([2]; human) was 2 n and the “Diaphoresis, patients with toxicity” value ([2]; human) was 1 n. For the same compound, the “Dizziness, patients with toxicity” value ([2]; human) was 1 n, the “Hyperglycemia, patients with toxicity” value ([2]; human) was 4 n and the “Hyperkalemia, patients with toxicity” value ([2]; human) was 2 n. For the same compound, the “Hypocalcemia, patients with toxicity” value ([2]; human) was 3 n, the “Lymphopenia, patients with toxicity” value ([2]; human) was 5 n and the “Nausea, patients with toxicity” value ([2]; human) was 3 n. The “Vomiting, patients with toxicity” value ([2]; human) was 1 n, the “Serious adverse events, number” value [2] was “eight” and the Protein binding [3] was “highly protein bound”.

— publication PMC3946636 (Cancer chemotherapy and pharmacology, 2013)
